Measured values taken from patent US9738642B2, “Triazolopyridine ether derivatives and their use in neurological and pyschiatric disorders” (BRISTOL-MYERS SQUIBB COMPANY, priority 2013, dated 2017).
Structures can show the parent of a compound that is named as a salt.

Biological target: T1, human mGluR2 (Homo sapiens, UniProt Q14416)
T1 construct: expressed in transfected cells; host or cells: HEK293 clonal line
Experiment: mGluR2 cAMP assay
Format: cell-based
Settings: clonally expressed human mGluR2 in HEK293; 1 μM forskolin, 1 μM LY-341495, 30 min; CISBIO cAMP kit; read-out: EC50 (nM), activity in mGluR2 cAMP assay
Experimental: On the day of the assay, media was removed, cells washed with PBS, cells harvested and pelleted by centrifugation. Cell pellets were resuspended in stimulation buffer without forskolin and counted. […] A standard curve was created using a top concentration of cAMP of 1 μM in the stimulation buffer, 1:3 dilutions over 14 points in the absence of cells. […] In house software converted the fluorescence value ratios to units of cAMP concentration, which is then used to calculate % inhibition for each test compound. MGluR2 cAMP Assay Materials and Methods. […] Buffer without forskolin was used as a negative control. Solutions of D2 and cryptate detection reagents from the CISBIO dynamic cAMP kit (62AM4PEJ) were diluted 1:40 in lysis buffer. Lysis buffer consisted of 50 mM Phosphate Buffer pH 7.0, 800 mM Potassium Fluoride, 0.2% BSA, and 1.0% Triton. Assay reaction was terminated by addition of detection reagents in lysis buffer. One hour later, plates were read on a PE Viewlux. Data was extracted, and concentration response curves generated by fitting the data to a standard 4 parameter logistic equation from which EC50 values were determined.

T1 sequence (Q14416 19-872): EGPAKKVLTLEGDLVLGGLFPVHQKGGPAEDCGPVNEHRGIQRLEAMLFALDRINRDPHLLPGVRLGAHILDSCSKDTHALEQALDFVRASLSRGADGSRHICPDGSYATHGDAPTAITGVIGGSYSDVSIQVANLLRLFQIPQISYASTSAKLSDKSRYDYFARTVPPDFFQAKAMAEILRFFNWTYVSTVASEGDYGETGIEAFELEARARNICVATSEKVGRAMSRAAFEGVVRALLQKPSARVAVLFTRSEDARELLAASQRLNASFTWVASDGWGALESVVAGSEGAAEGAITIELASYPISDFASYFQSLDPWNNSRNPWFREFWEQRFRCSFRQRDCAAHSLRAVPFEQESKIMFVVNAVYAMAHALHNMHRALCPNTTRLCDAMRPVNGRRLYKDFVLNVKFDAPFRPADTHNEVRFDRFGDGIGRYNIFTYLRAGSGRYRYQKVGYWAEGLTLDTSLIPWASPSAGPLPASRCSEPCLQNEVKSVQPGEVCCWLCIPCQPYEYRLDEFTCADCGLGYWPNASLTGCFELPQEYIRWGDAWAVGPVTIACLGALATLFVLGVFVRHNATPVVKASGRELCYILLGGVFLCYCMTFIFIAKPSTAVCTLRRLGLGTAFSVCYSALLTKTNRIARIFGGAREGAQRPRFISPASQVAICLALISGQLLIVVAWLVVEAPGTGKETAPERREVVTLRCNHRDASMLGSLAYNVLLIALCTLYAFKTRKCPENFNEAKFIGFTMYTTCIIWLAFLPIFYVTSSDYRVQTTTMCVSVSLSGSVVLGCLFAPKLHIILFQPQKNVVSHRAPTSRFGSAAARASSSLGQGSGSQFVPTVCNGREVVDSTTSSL

| SMILES | EC50 |
| --- | --- |
| CO[C@]1(c2ccc(F)c(F)c2)CC[C@H](Oc2ccn3c(CC4CC4)nnc3c2C(F)(F)F)CC1 [Example 28, 3-(Cyclopropylmethyl)-7-((1s,4s)-4-(3,4-difluorophenyl)-4-methoxycyclohexyloxy)-8-(trifluoromethyl)-[1,2,4]triazolo[4,3-a]pyridine] | 0.7 nM |
| CO[C@]1(c2ccc(F)cc2)CC[C@H](Oc2ccn3c(C4CC4(C)C)nnc3c2C(F)(F)F)CC1 (mixture of isomers) [Example 94, 3-(2,2-Dimethylcyclopropyl)-7-((1s,4s)-4-(4-fluorophenyl)-4-methoxycyclohexyloxy)-8-(trifluoromethyl)-[1,2,4]triazolo[4,3-a]pyridine] | 12 nM |
| COc1cccc(F)c1[C@H]1C[C@@H]1COc1ccn2c(CC3CC3)nnc2c1C(F)(F)F (racemic) [Example 32, (±)-3-(Cyclopropylmethyl)-7-(((1S,2S)-2-(2-fluoro-6-methoxyphenyl)cyclopropyl)methoxy)-8-(trifluoromethyl)-[1,2,4]triazolo[4,3-a]pyridine] | 0.3 nM |
| Fc1cc(F)cc(C2(COc3ccn4c(CC5CC5)nnc4c3C(F)(F)F)CC2)c1 [Example 55, 3-(Cyclopropylmethyl)-7-((1-(3,5-difluorophenyl)cyclopropyl)methoxy)-8-(trifluoromethyl)-[1,2,4]triazolo[4,3-a]pyridine] | 20 nM |
| CO[C@](C)(COc1ccn2c(CC3CC3)nnc2c1C(F)(F)F)c1ccc(F)cc1 (single isomer, unassigned) [Example 25] | 25 nM |
| FC(F)(F)c1c(OC[C@H]2C[C@@H]2c2ccc(Cl)cc2)ccn2c(CC3CC3)nnc12 (racemic) [Example 31, (±)-7-(((1S,2S)-2-(4-chlorophenyl)cyclopropyl)methoxy)-3-(cyclopropylmethyl)-8-(trifluoromethyl)-[1,2,4]triazolo[4,3-a]pyridine] | 1.3 nM |
| Fc1cccc(Cl)c1CCOc1ccn2c(CC3CC3)nnc2c1C(F)(F)F [Example 80, 7-(2-Chloro-6-fluorophenethoxy)-3-(cyclopropylmethyl)-8-(trifluoromethyl)-[1,2,4]triazolo[4,3-a]pyridine] | 0.4 nM |
| Fc1ccc([C@H]2C[C@@H]2COc2ccn3c(CC(F)(F)F)nnc3c2C(F)(F)F)cc1 [Example 52, 7-(((1S,2S)-2-(4-Fluorophenyl)cyclopropyl)methoxy)-3-(2,2,2-trifluoroethyl)-8-(trifluoromethyl)-[1,2,4]triazolo[4,3-a]pyridine] | 1.6 nM |
| Fc1ccc([C@H]2C[C@H](Oc3ccn4c(C5CC5(F)F)nnc4c3C(F)(F)F)C2)cc1 (mixture of isomers) [Example 98, (±)-3-(2,2-Difluorocyclopropyl)-7-((1r,3r)-3-(4-fluorophenyl)cyclobutoxy)-8-(trifluoromethyl)-[1,2,4]triazolo[4,3-a]pyridine] | 5.1 nM |
| FC(F)(F)c1c(O[C@H]2C[C@H](c3ccccc3)C2)ccn2c(CC3CC3)nnc12 [Example 57, 3-(Cyclopropylmethyl)-7-((1r,3r)-3-phenylcyclobutoxy)-8-(trifluoromethyl)-[1,2,4]triazolo[4,3-a]pyridine] | 0.5 nM |
| FC(F)(F)c1c(OCc2ccccc2)ccn2c(CC3CC3)nnc12 (racemic) [Example 85, 7-(Benzyloxy)-3-(cyclopropylmethyl)-8-(trifluoromethyl)-[1,2,4]triazolo[4,3-a]pyridine] | 25 nM |
| Fc1cccc(Cl)c1[C@H]1C[C@@H]1COc1ccn2c(CC3CC3)nnc2c1C(F)(F)F (racemic) [Example 48, (±)-7-(((1S,2S)-2-(2-chloro-6-fluorophenyl)cyclopropyl)methoxy)-3-(cyclopropylmethyl)-8-(trifluoromethyl)-[1,2,4]triazolo[4,3-a]pyridine] | 0.5 nM |
| CO[C@]1(c2ccc(F)cc2)CC[C@H](Oc2ccn3c(C4CC4(F)F)nnc3c2C(F)(F)F)CC1 (single isomer, unassigned) [Example 88, TFA salt] | 3.1 nM |
| Fc1ccccc1[C@H]1C[C@@H]1COc1ccn2c(CC3CC3)nnc2c1C(F)(F)F (racemic) [Example 43, (±)-3-(Cyclopropylmethyl)-7-(((1S,2S)-2-(2-fluorophenyl)cyclopropyl)methoxy)-8-(trifluoromethyl)-[1,2,4]triazolo[4,3-a]pyridine] | 1.4 nM |
| FC(F)(F)Oc1ccccc1[C@H]1C[C@@H]1COc1ccn2c(CC3CC3)nnc2c1C(F)(F)F (single isomer, unassigned) [Example 41] | 2.2 nM |
| N#C[C@]1(c2cc(F)cc(F)c2)C[C@H](Oc2ccn3c(CC4CC4)nnc3c2C(F)(F)F)C1 [Example 54, (1s,3s)-3-(3-(Cyclopropylmethyl)-8-(trifluoromethyl)-[1,2,4]triazolo[4,3-a]pyridin-7-yloxy)-1-(3,5-difluorophenyl)cyclobutanecarbonitrile] | 2.2 nM |
| COC1(c2ccc(F)cc2)CCC(Oc2ccn3c([C@H]4C[C@@H]4F)nnc3c2C(F)(F)F)CC1 (stereo partly drawn) [Example 90, 3-((1R,2S)-2-Fluorocyclopropyl)-7-((1s,4s)-4-(4-fluorophenyl)-4-methoxycyclohexyloxy)-8-(trifluoromethyl)-[1,2,4]triazolo[4,3-a]pyridine] | 19 nM |
| Clc1c(OCCCc2cccnc2)ccn2c(CC3CC3)nnc12 [Example 62, 8-Chloro-3-(cyclopropylmethyl)-7-(3-(pyridin-3-yl)propoxy)-[1,2,4]triazolo[4,3-a]pyridine] | 270 nM |
| CO[C@]1(c2ccc(F)cc2)CC[C@H](Oc2ccn3c(C4CC(F)(F)C4)nnc3c2C(F)(F)F)CC1 [Example 93, 3-(3,3-Difluorocyclobutyl)-7-((1s,4s)-4-(4-fluorophenyl)-4-methoxycyclohexyloxy)-8-(trifluoromethyl)-[1,2,4]triazolo[4,3-a]pyridine] | 20 nM |
| FC(F)(F)c1c(O[C@H]2CC[C@H](c3ccccc3)CC2)ccn2c(CC3CC3)nnc12 [Example 20, 3-(Cyclopropylmethyl)-7-((1r,4r)-4-phenylcyclohexyloxy)-8-(trifluoromethyl)-[1,2,4]triazolo[4,3-a]pyridine] | 0.4 nM |
| FC(F)(F)c1c(OCC2(c3cc(Cl)cc(Cl)c3)CC2)ccn2c(CC3CC3)nnc12 [Example 56, 3-(Cyclopropylmethyl)-7-((1-(3,5-dichlorophenyl)cyclopropyl)methoxy)-8-(trifluoromethyl)-[1,2,4]triazolo[4,3-a]pyridine] | 22 nM |
| CO[C@]1(c2ccc(F)cc2)CC[C@H](Oc2ccn3c(C4CC4(F)F)nnc3c2C(F)(F)F)CC1 (single isomer, unassigned) [Example 87, TFA salt] | 61 nM |
| C[C@](C#N)(COc1ccn2c(CC3CC3)nnc2c1C(F)(F)F)c1ccc(F)cc1 (single isomer, unassigned) [Example 15] | 80 nM |
| COc1cccc(F)c1COc1ccn2c(CC3CC3)nnc2c1Cl [Example 72, 8-Chloro-3-(cyclopropylmethyl)-7-(2-fluoro-6-methoxybenzyloxy)-[1,2,4]triazolo[4,3-a]pyridine] | 42 nM |
| COc1cccc(F)c1[C@H]1C[C@@H]1COc1ccn2c(CC3CC3)nnc2c1C(F)(F)F (single isomer, unassigned) [Example 35] | 0.2 nM |
| Fc1ccccc1COc1ccn2c(CC3CC3)nnc2c1Cl [Example 68, 8-Chloro-3-(cyclopropylmethyl)-7-(2-fluorobenzyloxy)-[1,2,4]triazolo[4,3-a]pyridine] | 68 nM |
